These results are taken from EPA's ToxValDB 9.5 (doi:10.2903/j.efsa.2016.4554).

The subject of data set [1] is Folsomia candida. The following applies: chronic/long-term; duration: 28 days; reproduction.
Data set [2] has as its system Pimephales promelas. The conditions noted are these: chronic/long-term.
For data set [3], the system named is Oncorhynchus mykiss. The conditions noted are these: acute; mortality.
The subject of data set [4] is Apis mellifera. The following applies: acute, mortality.
For data set [5], the system named is Tagia sp. The conditions noted are these: chronic/long-term; duration: 56 days; other.
Data set [6] relates to Rattus norvegicus.
Data set [7] relates to Bibionidae. The following applies: chronic/long-term; duration: 28 days.
The subject of data set [8] is Colinus virginianus. The following applies: reproduction developmental; duration: 22 weeks.
In data set [9] the test system is Daphnia magna. The conditions noted are these: chronic/long-term; duration: 21 days.
Data set [10] has as its system Mus musculus. The conditions noted are these: chronic; duration: 18 months; histopathology: neoplastic.
Data set [11] relates to Typhlodromus pyri. The experiment in a line: LR50; higher = less toxic. The conditions noted are these: not reported; mortality.

In data set [1], `CC(=O)C(C)(C)NC(=O)c1cc(Cl)cc(Cl)c1` [Benzamide, 3,5-dichloro-N-(1,1-dimethyl-2-oxopropyl)-] yielded an NOEC of 20 mg/kg.
As to `C#CC(C)(C)NC(=O)c1cc(Cl)cc(Cl)c1` [Propyzamide], the NOEC in data set [2] worked out at 0.224 mg/L; in [5], 3.3 mg/kg; in data set [7], 0.34 mg/L; in [9], 0.6 mg/L; in data set [1], 1.4 mg/kg. Further, the LD50 in data set [3] was over 4.7 mg/L; in data set [4] (dermal), over 100 µg/piece; in [4] (oral, unspecified), over 100 µg/piece. The compound also came in with an LOAEL in [6] (acute, neurology) of 40 mg/kg-day. Further, the NOAEL in [6] (reproduction developmental, M, body weight) was found to be 12.1 mg/kg-day; in [6] (subchronic, duration: 90 days, oral, organ weight) it was 4.5 mg/kg-day; in [10] it was 5 mg/kg-day. Moreover, in data set [8], the NOEL amounted to 30.9 mg/kg-day. Also, the LR50 in [11] was found to be 1890 g/ha.
